In general, TGI refers to the concentration giving total growth inhibition.

From PubChem BioAssay (NCI) come the findings set out here.

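Method: 48-hour compound exposure of cells in 96-well plates, five concentrations, linear interpolation of endpoints. TGI: total growth inhibition.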 A value given as a limit tells only on which side of the number the result lay.

Among the test systems are ACHN renal; CCRF-CEM leukemia; HCC-2998 colon; HL-60(TB) leukemia; LXFL 529 NSCLC; MALME-3M melanoma; OVCAR-4 ovarian; SK-MEL-28 melanoma; SK-MEL-5 melanoma; SNB-19 CNS; UACC-62 melanoma; CAKI-1 renal; HOP-62 NSCLC; BT-549 breast; HS 578T breast; MCF7 breast; MDA-MB-231 breast; MDA-MB-435; MDA-N; NCI/ADR-RES ovarian.
Test in all cases: DTP human tumour cell line panel, 48 h

With `CC(C)(CN1CCCCC1)C(=O)/C=C/c1ccc(Cl)cc1`, the TGI in the test on ACHN renal was 17.2 µM; with CCRF-CEM leukemia, 7 µM; with HCC-2998 colon, 26.3 µM; in the test with HL-60(TB) leukemia it was 4.8 µM; with LXFL 529 NSCLC it was 9.75 µM; in the test with MALME-3M melanoma, 18.9 µM. The TGI came to 16 µM with OVCAR-4 ovarian; 22.6 µM with SK-MEL-28 melanoma; 15.1 µM with SK-MEL-5 melanoma; 17 µM in the test with SNB-19 CNS; 20.2 µM in the test with UACC-62 melanoma.

`CC(C)C(Sc1nc(-c2ccccc2)c(-c2ccccc2)[nH]1)C(=O)NN` (stereo not drawn): the TGI in the test on ACHN renal, in the test with CAKI-1 renal, in the test with CCRF-CEM leukemia, in the test on HL-60(TB) leukemia, in the test with HOP-62 NSCLC and with LXFL 529 NSCLC was > 100 µM throughout. The TGI in the test with MALME-3M melanoma, in the test with OVCAR-4 ovarian, in the test on SK-MEL-28 melanoma, in the test with SK-MEL-5 melanoma and with SNB-19 CNS was > 100 µM throughout.

For `O=C(NCCCCCCNC(=O)OCCSCCn1cc(C(=O)NC(=O)OCc2ccccc2)c(=O)[nH]c1=O)OCCSCCn1cc(C(=O)NC(=O)OCc2ccccc2)c(=O)[nH]c1=O`, the TGI with ACHN renal, in the test on CAKI-1 renal, with CCRF-CEM leukemia, with HCC-2998 colon, with HOP-62 NSCLC and with LXFL 529 NSCLC was > 100 µM throughout. Further, the TGI in the test on MALME-3M melanoma, with OVCAR-4 ovarian, with SK-MEL-5 melanoma, in the test on SNB-19 CNS and in the test with UACC-62 melanoma was > 100 µM throughout.

As for `C=C1C(=O)O[C@H]2[C@H](OC(C)=O)[C@@H](C)CCC/C(C)=C/CC[C@@]3(C)O[C@@H]3C[C@@H]12`, the TGI in the test on ACHN renal came to 3.4 µM; with BT-549 breast, 8.76 µM; in the test on CAKI-1 renal it was 5.37 µM; with CCRF-CEM leukemia, 3.76 µM; with HCC-2998 colon it was 11.6 µM; in the test on HL-60(TB) leukemia it was 2.38 µM. Further, the TGI amounted to 43.6 µM in the test with HOP-62 NSCLC; 13.2 µM with HS 578T breast; 30.6 µM in the test on MALME-3M melanoma; 7.71 µM with MCF7 breast; 10.6 µM in the test on MDA-MB-231 breast; 15.1 µM with MDA-MB-435. The TGI in the test on MDA-N is 10.6 µM; with NCI/ADR-RES ovarian, 4 µM; in the test with OVCAR-4 ovarian it was 8.76 µM; in the test on SK-MEL-28 melanoma, 11.1 µM; with SK-MEL-5 melanoma, 15.5 µM; in the test with SNB-19 CNS, 34 µM. In the test on UACC-62 melanoma, this compound displayed a TGI of 9.43 µM.

Take `CC(=O)C(CN(Cc1ccccc1)Cc1ccccc1)C(c1ccccc1)c1c(O)c2ccccc2oc1=O` (stereo not drawn): the concentration for total growth inhibition (TGI) with ACHN renal, in the test on CAKI-1 renal, with CCRF-CEM leukemia, in the test with HL-60(TB) leukemia, in the test with HOP-62 NSCLC and with LXFL 529 NSCLC was > 100 µM throughout. Also, the TGI in the test on MALME-3M melanoma, in the test with OVCAR-4 ovarian, in the test with SK-MEL-5 melanoma, in the test on SNB-19 CNS and with UACC-62 melanoma was > 100 µM each time.

In the case of `COC(=O)NN=C1C(C)(C)C(=O)C1(C)C`, the TGI in the test with ACHN renal, in the test with CCRF-CEM leukemia, in the test on HCC-2998 colon, in the test on HL-60(TB) leukemia, in the test with HOP-62 NSCLC and in the test on LXFL 529 NSCLC was > 100 µM in each case. Besides, the TGI in the test on MALME-3M melanoma, in the test on SK-MEL-28 melanoma, in the test on SK-MEL-5 melanoma and in the test with UACC-62 melanoma was > 100 µM throughout.

Regarding `CSc1sc(=S)sc1C(=O)N(C)c1ccccc1`, the TGI in the test on ACHN renal, in the test on CCRF-CEM leukemia, in the test with HL-60(TB) leukemia, in the test on HOP-62 NSCLC, in the test on LXFL 529 NSCLC and with MALME-3M melanoma was > 100 µM in each case. Further, the TGI in the test with OVCAR-4 ovarian, in the test with SK-MEL-28 melanoma, in the test on SK-MEL-5 melanoma, in the test with SNB-19 CNS and with UACC-62 melanoma was > 100 µM each time.

As to `c1ccc2c(c1)cc1c3[nH]c4ccccc4c3ccn21`, the concentration for total growth inhibition (TGI) in the test on ACHN renal, in the test on BT-549 breast, in the test on CAKI-1 renal, in the test on CCRF-CEM leukemia, with HCC-2998 colon and with HL-60(TB) leukemia was > 10 µM each time. Further, the TGI in the test on HOP-62 NSCLC was > 10 µM; in the test on HS 578T breast, > 10 µM; in the test with MALME-3M melanoma, 4.48 µM; in the test with MCF7 breast, > 10 µM; in the test on MDA-MB-231 breast, > 10 µM; with MDA-MB-435, > 10 µM. Besides, the TGI in the test with MDA-N, in the test on NCI/ADR-RES ovarian, in the test on OVCAR-4 ovarian, in the test with SK-MEL-28 melanoma, with SK-MEL-5 melanoma and in the test with SNB-19 CNS was > 10 µM throughout. Also, the TGI in the test with UACC-62 melanoma was > 10 µM.

With `O=c1nc(NC(c2ccccc2)(c2ccccc2)c2ccccc2)ccn1CCNCCn1ccc(NC(c2ccccc2)(c2ccccc2)c2ccccc2)nc1=O`, the TGI in the test on ACHN renal was > 100 µM; with CAKI-1 renal, > 100 µM; in the test with CCRF-CEM leukemia, > 100 µM; in the test on HCC-2998 colon, 17.1 µM; in the test with HOP-62 NSCLC, 32.5 µM; with LXFL 529 NSCLC, 26.2 µM. The TGI was determined as 29.3 µM in the test with MALME-3M melanoma; 49 µM with OVCAR-4 ovarian; 22.2 µM with SK-MEL-28 melanoma; 20.5 µM with SK-MEL-5 melanoma; 23.4 µM with SNB-19 CNS; 24.1 µM in the test with UACC-62 melanoma.

Take `CCN(C(C)=O)c1cnc(/C=N/NC(N)=S)c2ccccc12`: the TGI is > 22.4 µM in the test with ACHN renal; > 31.1 µM with BT-549 breast; > 51.9 µM with CAKI-1 renal; > 100 µM in the test on CCRF-CEM leukemia; > 100 µM in the test on HCC-2998 colon; > 28.5 µM in the test on HL-60(TB) leukemia. In addition, the TGI in the test on HOP-62 NSCLC was > 60.1 µM; in the test with HS 578T breast, > 100 µM; with MALME-3M melanoma, > 100 µM; in the test on MCF7 breast, > 23.8 µM; in the test with MDA-MB-231 breast, > 100 µM; with MDA-MB-435, > 100 µM. Moreover, the TGI was > 100 µM in the test on MDA-N; 58.6 µM in the test on NCI/ADR-RES ovarian; > 100 µM in the test on OVCAR-4 ovarian; > 100 µM in the test with SK-MEL-28 melanoma; > 67.1 µM in the test on SK-MEL-5 melanoma; > 100 µM in the test on SNB-19 CNS. The same compound gave a TGI in the test on UACC-62 melanoma of 11 µM.

Take `OC1[C@H](O)CN(OCc2ccccc2)C[C@@H]1O` (stereo partly drawn): the TGI in the test on ACHN renal, in the test on BT-549 breast, in the test with CAKI-1 renal, in the test with CCRF-CEM leukemia, in the test on HCC-2998 colon and in the test with HL-60(TB) leukemia was > 100 µM throughout. Moreover, the concentration for total growth inhibition (TGI) in the test on HOP-62 NSCLC, in the test with HS 578T breast, in the test on MALME-3M melanoma, with MCF7 breast, in the test with MDA-MB-231 breast and in the test on MDA-MB-435 was > 100 µM in each case. In addition, the TGI in the test with MDA-N, with NCI/ADR-RES ovarian, with OVCAR-4 ovarian, with SK-MEL-28 melanoma, with SK-MEL-5 melanoma and with SNB-19 CNS was > 100 µM each time. In addition, the TGI with UACC-62 melanoma was > 100 µM.

For the compound `CCOC(=O)[C@@H]1CCN2CN(c3ccc(OC)cc3)N=C(c3ccccc3)[C@@]12c1ccccc1`, the TGI with ACHN renal was 91.5 µM; with BT-549 breast, 55.2 µM; in the test with CAKI-1 renal, > 100 µM; with CCRF-CEM leukemia it was > 100 µM; in the test with HCC-2998 colon it was 67.1 µM; in the test on HL-60(TB) leukemia it was > 100 µM. Besides, the TGI is 62.6 µM in the test with HOP-62 NSCLC; 70.3 µM in the test with HS 578T breast; 37.9 µM with MALME-3M melanoma; 50 µM in the test on MCF7 breast; > 100 µM with MDA-MB-231 breast; > 100 µM in the test with MDA-MB-435. Besides, the TGI with MDA-N is > 100 µM; in the test with NCI/ADR-RES ovarian it was 67.9 µM; with OVCAR-4 ovarian it was > 100 µM; with SK-MEL-28 melanoma it was 56 µM; in the test with SK-MEL-5 melanoma, 30.5 µM; with SNB-19 CNS, > 100 µM. The total growth inhibition concentration (TGI) in the test on UACC-62 melanoma stood at 35 µM.

Regarding `O=C(O)CCC(NC(=O)c1ccccc1)C(=O)O` (stereo not drawn), the TGI with ACHN renal, with CAKI-1 renal, in the test on CCRF-CEM leukemia, with HCC-2998 colon, in the test on HOP-62 NSCLC and with LXFL 529 NSCLC was > 100 µM in each case. The TGI in the test with MALME-3M melanoma, in the test on OVCAR-4 ovarian, in the test on SK-MEL-28 melanoma, in the test with SK-MEL-5 melanoma, with SNB-19 CNS and in the test on UACC-62 melanoma was > 100 µM throughout.

In the case of `CC1=NN(C(=O)CC(=O)Nc2ccc(C)cc2)C(=O)C1N=Nc1ccc(S(=O)(=O)c2ccc(N=NC3C(=O)N(C(=O)CC(=O)Nc4ccc(C)cc4)N=C3C)cc2)cc1` (stereo not drawn), the TGI in the test on ACHN renal, with BT-549 breast, in the test on CAKI-1 renal, in the test with CCRF-CEM leukemia, in the test on HCC-2998 colon and in the test on HL-60(TB) leukemia was > 100 µM in each case. In addition, the TGI in the test on HOP-62 NSCLC, in the test with HS 578T breast, in the test with MALME-3M melanoma, with MCF7 breast, in the test with MDA-MB-231 breast and with MDA-MB-435 was > 100 µM throughout. The TGI in the test with MDA-N, in the test on NCI/ADR-RES ovarian, in the test on OVCAR-4 ovarian, in the test with SK-MEL-28 melanoma, in the test on SK-MEL-5 melanoma and in the test with SNB-19 CNS was > 100 µM throughout. Besides, the TGI in the test on UACC-62 melanoma is > 100 µM.
